Experimental data: patent US20050267055A1, “Agent for improvement of glucose tolerance” (USE-TECHNO CORPORATION, priority 2003, published 2005)

Assay: Glucose tolerance test in a dog after corosolic acid administration
Type: in vivo
Settings: dog (beagle), 20 mg/kg of body weight corosolic acid single administration; 75 g grape sugar oral load; tests up to 28 days after administration vs 60 days before
Procedure: (Glucose Tolerance Improving Effect of Corosolic Acid Administration in a Dog)
A dog (beagle) was used as the test animal. 20 mg/kg of body weight of purified corosolic acid extracted from banaba leaves was administered to the animal, and the glucose tolerance improvement effect was evaluated.
The glucose tolerance was evaluated by performing glucose tolerance tests according to the procedure described in (1)-(3) below. A glucose tolerance test was performed 60 days before corosolic acid administration, immediately after corosolic acid administration, and at 7 days, 14 days, 21 days and 28 days after corosolic acid administration. At time points other than immediately after corosolic acid administration, the glucose tolerance test was performed immediately after the same dose of D-sorbitol was orally administered as a placebo instead of corosolic acid. • (1) 75 g of grape sugar is administered orally to the dog. • (2) Blood is collected from the dog's vein at 0 minute, 30 minutes, 60 minutes, 90 minutes, 120 minutes, 180 minutes and 240 minutes after grape sugar administration, and the blood glucose level of the collected blood is measured using GLUTEST SENSOR (trade name, manufactured by SANWA KAKAGU KENKYUSHO CO.,LTD). • (3) The total of 7 blood glucose levels measured above in (2) is represented by ΣBG [mg/dl].

C[C@H]1[C@H](C)CC[C@]2(C(=O)O)CC[C@]3(C)C(=CC[C@@H]4[C@@]5(C)C[C@@H](O)[C@H](O)C(C)(C)[C@@H]5CC[C@]43C)[C@H]12 [corosolic acid]
ΣBG (total of 7 blood glucose levels in glucose tolerance test): lower values for 28 days after corosolic acid adminisration than before corosolic acid adminisration
